Measured values taken from article PMC10906223 (JCI Insight, 2024).
Where “and” joins values, the source holds several entries; their conditions need not be identical. Equal entries are not always repeated.

Legend:
diabetic NOD mice [1] = experiment: Intraperitoneal glucose tolerance test in NOD mice; format: in vivo, mouse; parameters: Blood glucose, IPGTT (Figure 6D): unit not given here; conditions: for Blood glucose, IPGTT (Figure 6D): Diabetic
Description: Following 5 hours of fasting, NOD mice were injected with 20% sterile glucose solution (i.p. […] body weight; at the volume of 10 times of the body weight). Blood glucose levels were measured before injection by tail nick. Following injection, blood glucose levels were measured at time points of 15, 30, 45, 60, 90, 120, and 180 minutes by using the glucometer. […] Glucose tolerance test was done at 3 time points (8, 14, and 24 hours) after the final WCDD301 administration. Data were plotted using GraphPad Prism software version 4.

[2] = tested on: human dispersed islet cells; experiment: Immunofluorescence: EphA4 intensity in glucagon+ human dispersed islet cells; format: cell-based;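 as to EphA4 intensity: ImageJ intensity within ROI drawn around each glucagon+ cell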
Description: Coverslips were treated with WCDD301, preclustered Ephrin-A5 Fc, or preclustered Fc in the following sequential order: KRBH (11 mM glucose, 30 minutes), KRBH (1 mM glucose, 60 minutes), KRBH (1 mM glucose, 30 minutes), and KRBH (11 mM glucose, 60 minutes). After treatment, coverslips were washed once in PBS, fixed in 2% paraformaldehyde in PBS (30 minutes), and again washed in PBS. […] Following wash in PBS, coverslips were incubated in a mixture of Alexa Fluor 555 Phalloidin (Cell Signaling Technology, catalog 8953) and secondary antibodies (goat anti-rabbit Alexa Fluor 488, catalog A-21094, 1:1,000, Molecular Probes; and goat anti-mouse Alexa Fluor 633, catalog A21052, 1:1,000, Life Technologies) for 1 hour at RT. Both primary and secondary antibodies were diluted in blocking buffer containing 0.05% Tween 20. Coverslips were washed using PBS and counterstained by using DAPI (1:1,000) for 10 minutes. Following 2 washes in PBS, coverslips were mounted on glass slides using ProLong Glass Antifade Mountant (Invitrogen, catalog P36980). Images were captured using the Zeiss LSM880 microscope with a Plan-Apochromat 63× 1.4 NA objective lens by setting dual-band dichroic/filter for 405, 488, 561, and 633 nm laser excitation. For each slide, 25–30 fields of view were scanned, and in each field of view, 3–5 cells were imaged. […] Values of intensity were compared among groups using 1-way ANOVA, α = 0.05.

diabetic NOD mice [3] = experiment: Plasma insulin in NOD mice after treatment; format: in vivo, mouse; conditions: WCDD301-treated diabetic NOD mice; Figure 6C
Description: Terminal blood was collected into microfuge tubes containing K2-EDTA (supplemented by 45 mM phenylmethylsulphonyl fluoride and 0.77 μM aprotinin) through cardiac puncture. Plasma was separated by centrifugation (2,000g for 10 minutes at 4°C) and kept at –80°C until analysis. Plasma samples with hemolysis were excluded from the study. […] Values of BUN, creatinine, ALB, ALT, and AST were determined by a Roche Cobas C501 Autoanalyzer as performed by the Washington University Diabetes Research Center Translational Diagnostics Core. Reference intervals of blood chemistry parameters for inbred NOD mice were extracted from the Mouse Phenome Database (https://phenome.jax.org/).

[4] = tested on: α cells of NOD mice islets; experiment: α cell numbers and sizes in islets of NOD mice; format: in vivo, mouse; conditions: 11-week administration; Supplemental Figure 7
Description: Pancreata of NOD mice (females, n = 3 per group) from nondiabetic, diabetic placebo-treated, and diabetic WCDD301-treated cohorts were excised; fixed in 10% buffered formalin for 5 days; and treated with ethanol 70% for 2 days before paraffin embedding. The paraffin-embedded tissue blocks were longitudinally sectioned in 5 μm slices and fixed on microscope slides. Following deparaffinization (through incubation in graded xylene, graded ethanol, and PBS), permeabilization (using 0.1% Triton X-100 in PBS), and background blocking (using 5% BSA solution containing 0.1% Tween 20), samples were incubated with primary antibodies (mouse anti-glucagon, Abcam, catalog ab10988; above-mentioned rabbit anti-EphA4), secondary antibodies (goat anti-mouse IgG Alexa Fluor 488; Invitrogen, catalog A-11001; goat anti-rabbit IgG Alexa Fluor 633, Invitrogen, catalog A-21070), SPY555-Actin (Cytoskeleton, catalog SC202), and DAPI. Image acquisition and analysis were performed as for dispersed islet cells. […] ROIs were manually drawn around each islet, background signal was removed by thresholding, and intensity of glucagon signal was determined and normalized by the islet surface area. To determine sizes of α cells per islet, ROIs were manually drawn around α cells in each islet. […]

For CC(=O)OCC(N)(COC(C)=O)COC(C)=O [WCDD301, 2-(acetoxymethyl)-2-aminopropane-1,3-diyl diacetate], the “Blood glucose, IPGTT (Figure 6D)” value (diabetic NOD mice [1]; 8h after WCDD301 dosing (first group, c4-c6), 0 min) was 135 and 151 and 125, the “Blood glucose, IPGTT (Figure 6D)” value (diabetic NOD mice [1]; 8h after WCDD301 dosing (first group, c4-c6), 15 min) was 160 and 159 and 158 and the “Blood glucose, IPGTT (Figure 6D)” value (diabetic NOD mice [1]; 8h after WCDD301 dosing (first group, c4-c6), 30 min) was 175 and 165 and 162. For the same compound, the “Blood glucose, IPGTT (Figure 6D)” value (diabetic NOD mice [1]; 8h after WCDD301 dosing (first group, c4-c6), 45 min) was 165 and 175, the “Blood glucose, IPGTT (Figure 6D)” value (diabetic NOD mice [1]; 8h after WCDD301 dosing (first group, c4-c6), 60 min) was 155 and 145 and 135 and the “Blood glucose, IPGTT (Figure 6D)” value (diabetic NOD mice [1]; 8h after WCDD301 dosing (first group, c4-c6), 90 min) was 150 and 135 and 114. The “Blood glucose, IPGTT (Figure 6D)” value (diabetic NOD mice [1]; 8h after WCDD301 dosing (second group, c7-c9), 0 min) was 140 and 151 and 137, the “Blood glucose, IPGTT (Figure 6D)” value (diabetic NOD mice [1]; 8h after WCDD301 dosing (second group, c7-c9), 15 min) was 210 and 206 and 205 and the “Blood glucose, IPGTT (Figure 6D)” value (diabetic NOD mice [1]; 8h after WCDD301 dosing (second group, c7-c9), 30 min) was 340 and 307 and 321. For the same compound, the “Blood glucose, IPGTT (Figure 6D)” value (diabetic NOD mice [1]; 8h after WCDD301 dosing (second group, c7-c9), 45 min) was 380 and 356 and 372, the “Blood glucose, IPGTT (Figure 6D)” value (diabetic NOD mice [1]; 8h after WCDD301 dosing (second group, c7-c9), 60 min) was 320 and 395 and 372 and the “Blood glucose, IPGTT (Figure 6D)” value (diabetic NOD mice [1]; 8h after WCDD301 dosing (second group, c7-c9), 90 min) was 295 and 386 and 368. The “Blood glucose, IPGTT (Figure 6D)” value (diabetic NOD mice [1]; 8h after WCDD301 dosing (second group, c7-c9), 120 min) was 135 and 159 and 148, the “Blood glucose, IPGTT (Figure 6D)” value (diabetic NOD mice [1]; 14h after WCDD301 dosing, 0 min) was 119 and 140 and 138 and the “Blood glucose, IPGTT (Figure 6D)” value (diabetic NOD mice [1]; 14h after WCDD301 dosing, 15 min) was 520 and 480 and 450. For the same compound, the “Blood glucose, IPGTT (Figure 6D)” value (diabetic NOD mice [1]; 14h after WCDD301 dosing, 30 min) was 650 and 550, the “Blood glucose, IPGTT (Figure 6D)” value (diabetic NOD mice [1]; 14h after WCDD301 dosing, 45 min) was 650 and the “Blood glucose, IPGTT (Figure 6D)” value (diabetic NOD mice [1]; 14h after WCDD301 dosing, 60 min) was 650 and 550 and 468. The “Blood glucose, IPGTT (Figure 6D)” value (diabetic NOD mice [1]; 14h after WCDD301 dosing, 90 min) was 555 and 450 and 350, the “Blood glucose, IPGTT (Figure 6D)” value (diabetic NOD mice [1]; 14h after WCDD301 dosing, 120 min) was 410 and 325 and 286 and the “Blood glucose, IPGTT (Figure 6D)” value (diabetic NOD mice [1]; 14h after WCDD301 dosing, 180 min) was 158 and 151 and 140. For the same compound, the “Blood glucose, IPGTT (Figure 6D)” value (diabetic NOD mice [1]; 24h after WCDD301 dosing, 0 min) was 320 and 290 and 325, the “Blood glucose, IPGTT (Figure 6D)” value (diabetic NOD mice [1]; 24h after WCDD301 dosing, 15 min) was 590 and 480 and 552 and the “Blood glucose, IPGTT (Figure 6D)” value (diabetic NOD mice [1]; 24h after WCDD301 dosing, 30 min) was 650 and 590 and 610. For the same compound, the “Blood glucose, IPGTT (Figure 6D)” value (diabetic NOD mice [1]; 24h after WCDD301 dosing, 45 min) was 650, the “Blood glucose, IPGTT (Figure 6D)” value (diabetic NOD mice [1]; 24h after WCDD301 dosing, 60 min) was 590 and 600 and 580 and the “Blood glucose, IPGTT (Figure 6D)” value (diabetic NOD mice [1]; 24h after WCDD301 dosing, 90 min) was 520 and 590 and 570. The “Blood glucose, IPGTT (Figure 6D)” value (diabetic NOD mice [1]; 24h after WCDD301 dosing, 120 min) was 490 and 520 and 505, the “Blood glucose, IPGTT (Figure 6D)” value (diabetic NOD mice [1]; 24h after WCDD301 dosing, 180 min) was 510 and 550 and 512 and the Glucose tolerance (diabetic NOD mice [1]; NOD mice versus placebo-treated diabetic control) was “Glucose tolerance was improved”. The EphA4 intensity ([2]; human cells, individual values, Figure 3G) was 58.8 and 45.8 and 8.0 and 57.8 and 32.5 and 5.4 and 45.9 and 14.9 and 11.0, the “Effect on intracellular EphA4” value ([2]; α cells, human donors) was “increased intracellular EphA4 intensity” and the Plasma insulin (diabetic NOD mice [3]) was “Undetectable”. The “Numbers or sizes of α cells (histology)” value [4] was “did not indicate any alterations in numbers or sizes of α cells”.
